This note sets out measurements from ChEMBL document CHEMBL1201862, “PubChem BioAssay data set” (2004).

Among the test systems are HCT-15; MDA-N; UO-31; HL-60; T47D; KM12; RPMI-8226; UACC-257; SF-268; UACC-62; CAKI-1; SF-295; HT-29; EKVX; SNB-75; SK-MEL-2; HCT-116; OVCAR-4; SK-MEL-5.
What all share (assay): NCI tumour cell line growth inhibition, 48 h

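Each compound was tested at five concentrations against cells in 96-well plates for 48 hours. GI50 = concentration required for 50% inhibition of growth.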 Active and inactive are the calls of the source. Rule as the data show it: active = GI50 up to about 1.1 µM and inactive = higher.

Turning to `CC(=O)C(C(c1ccccc1)N1CCOCC1)N1CCOCC1` (configuration not stated), the GI50 was > 100 µM in the assay with HCT-15; > 100 µM (inactive) in the assay with MDA-N; > 100 µM (inactive) with UO-31; > 100 µM (inactive) in the assay with HL-60; > 100 µM (inactive) with T47D; > 100 µM (inactive) in the assay with KM12. Also, the GI50 with RPMI-8226 is > 100 µM (inactive); with UACC-257 it was 18.5 µM (inactive); in the assay on SF-268, > 100 µM (inactive); in the assay on UACC-62, > 100 µM (inactive); with CAKI-1, > 100 µM (inactive); in the assay on SF-295, > 100 µM (inactive). Further, the GI50 in the assay on HT-29, with EKVX, in the assay on SNB-75, in the assay with SK-MEL-2, with HCT-116 and in the assay on OVCAR-4 was > 100 µM (inactive) in each case. Moreover, in the assay on SK-MEL-5, the GI50 is > 100 µM (inactive).

Turning to `N#C[C@H](c1nc2ccccc2s1)c1nc2ccccc2nc1Cl`, the GI50 in the assay with HCT-15 is 4.04 µM; with MDA-N it was > 100 µM (inactive); in the assay with UO-31, 23.3 µM (inactive); with HL-60, > 100 µM (inactive); in the assay with T47D, > 100 µM (inactive); with KM12 it was 80.9 µM (inactive). The GI50 was > 100 µM (inactive) with RPMI-8226; 14.7 µM (inactive) with UACC-257; 14.3 µM (inactive) in the assay on UACC-62; > 100 µM (inactive) with CAKI-1; 17.1 µM (inactive) with SF-295; > 100 µM (inactive) with HT-29. For the same compound, the GI50 in the assay on EKVX is > 100 µM (inactive); with SNB-75, > 100 µM (inactive); in the assay on SK-MEL-2, 33.7 µM (inactive); with HCT-116 it was > 100 µM (inactive); in the assay on OVCAR-4 it was 16.3 µM (inactive); in the assay with SK-MEL-5, > 100 µM (inactive).

For `COc1ccc(/C(C)=N/OC(=O)c2c(-c3ccccc3Cl)noc2C)cc1CN1CCOCC1`, the GI50 in the assay with HCT-15 is 26.5 µM; in the assay with MDA-N it was 18.8 µM (inactive); in the assay with UO-31, 3.75 µM (inactive); in the assay with HL-60 it was 17.1 µM (inactive); with T47D it was 16.4 µM (inactive); with KM12, 22.4 µM (inactive). The GI50 with RPMI-8226 was 26.1 µM (inactive); in the assay on UACC-257, 17.9 µM (inactive); with SF-268, 30.8 µM (inactive); in the assay on UACC-62 it was 15 µM (inactive); in the assay with CAKI-1, 20.7 µM (inactive); in the assay with SF-295 it was 11.5 µM (inactive). Besides, the GI50 in the assay with HT-29 was 18.3 µM (inactive); in the assay on SNB-75, 28.4 µM (inactive); with SK-MEL-2 it was 16.4 µM (inactive); in the assay on HCT-116, 18.2 µM (inactive); with OVCAR-4 it was 29.4 µM (inactive); in the assay with SK-MEL-5, 17.3 µM (inactive).

As to `O=C(/C=C/c1ccc2c(c1)OCO2)CC(=O)C(=O)c1c[nH]c2ccccc12`, the GI50 with HCT-15 was 36.8 µM; in the assay on MDA-N, 27.9 µM (inactive); in the assay on UO-31 it was 24.2 µM (inactive); in the assay on HL-60 it was 29.2 µM (inactive); in the assay with T47D, 29.4 µM (inactive); with KM12, 33.4 µM (inactive). In addition, the GI50 in the assay with RPMI-8226 is 35.4 µM (inactive); in the assay with UACC-257, 51.8 µM (inactive); in the assay with SF-268, 37.2 µM (inactive); in the assay on UACC-62, 44.2 µM (inactive); in the assay on CAKI-1, 39.5 µM (inactive); in the assay on SF-295 it was 61.8 µM (inactive). Besides, the GI50 in the assay with HT-29 was 36.3 µM (inactive); in the assay on EKVX it was 38.5 µM (inactive); in the assay on SNB-75, 29.3 µM (inactive); with SK-MEL-2, > 100 µM (inactive); in the assay on HCT-116, 31.8 µM (inactive); in the assay on SK-MEL-5 it was 58.3 µM (inactive).

`CCOC(=O)N1[C@@H]2CCC[C@@H]2C(=O)[C@@H]2CCC[C@@H]21`: the GI50 was > 100 µM in the assay on HCT-15; > 100 µM (inactive) in the assay on MDA-N; > 100 µM (inactive) in the assay with HL-60; > 100 µM (inactive) in the assay on T47D; > 100 µM (inactive) in the assay on KM12; > 100 µM (inactive) in the assay with RPMI-8226. Further, the GI50 with UACC-257, in the assay on SF-268, with UACC-62, in the assay with CAKI-1, in the assay on HT-29 and in the assay with SNB-75 was > 100 µM (inactive) each time. Also, the GI50 with SK-MEL-2, in the assay with HCT-116, in the assay with OVCAR-4 and in the assay on SK-MEL-5 was > 100 µM (inactive) each time.

Consider `CCOC(=O)NC(Nc1ncn(C(NC(=O)OCC)(C(F)(F)F)C(F)(F)F)n1)(C(F)(F)F)C(F)(F)F`, for which the GI50 is > 100 µM in the assay with HCT-15; > 100 µM (inactive) in the assay on MDA-N; 12.2 µM (inactive) in the assay on UO-31; > 100 µM (inactive) with HL-60; 49 µM (inactive) with T47D; > 100 µM (inactive) in the assay with KM12. The GI50 in the assay with RPMI-8226, in the assay with UACC-257, in the assay on SF-268, in the assay with UACC-62, in the assay on CAKI-1 and in the assay on SF-295 was > 100 µM (inactive) throughout. Also, the GI50 in the assay with HT-29, with EKVX, in the assay on SNB-75, in the assay with HCT-116, in the assay with OVCAR-4 and with SK-MEL-5 was > 100 µM (inactive) in each case.

As to `CCOC(=O)C(Cl)(NC(=O)c1ccc(F)cc1)C(F)(F)F` (configuration not stated), the GI50 in the assay on HCT-15 is > 100 µM; in the assay on MDA-N, > 100 µM (inactive); with UO-31, > 100 µM (inactive); in the assay on HL-60, > 100 µM (inactive); in the assay on T47D it was > 100 µM (inactive); in the assay on KM12 it was 39.2 µM (inactive). The GI50 in the assay on RPMI-8226, in the assay on UACC-257, with SF-268, in the assay with CAKI-1, in the assay with SF-295 and with HT-29 was > 100 µM (inactive) in each case. The GI50 in the assay on EKVX is > 100 µM (inactive); in the assay with SNB-75 it was 77.3 µM (inactive); in the assay on SK-MEL-2 it was > 100 µM (inactive); in the assay with HCT-116 it was > 100 µM (inactive); in the assay on OVCAR-4 it was > 100 µM (inactive); in the assay with SK-MEL-5 it was > 100 µM (inactive).

As for `C/C=C1/CN2CCc3c([nH]c4ccccc34)[C@@H]2C[C@@H]1Cc1nccc2c1[nH]c1cc(O)ccc12`, the GI50 in the assay with HCT-15 is 2.9 µM; with MDA-N, 2.01 µM (inactive); in the assay with UO-31 it was 1.99 µM (inactive); in the assay on HL-60, 2.45 µM (inactive); in the assay with T47D, 2.14 µM (inactive); with KM12, 1.95 µM (inactive). Further, the GI50 is 2.41 µM (inactive) with UACC-257; 1.77 µM (inactive) in the assay on SF-268; 2.07 µM (inactive) in the assay with UACC-62; 1.73 µM (inactive) with CAKI-1; 1.9 µM (inactive) in the assay with SF-295; 1.87 µM (inactive) with HT-29. In addition, the GI50 in the assay with EKVX is 2.07 µM (inactive); with SNB-75, 1.64 µM (inactive); with SK-MEL-2 it was 2.05 µM (inactive); in the assay with HCT-116, 1.67 µM (inactive); with OVCAR-4 it was 1.57 µM (inactive); in the assay on SK-MEL-5 it was 1.57 µM (inactive).

In the case of `CCN1CC2(C)CCC(OC)C34C5CC6CCC(O)(C5C(=O)O6)C(C(O)C23)C14` (configuration not stated), the GI50 in the assay on HCT-15 is > 100 µM; in the assay on MDA-N, > 100 µM (inactive); with UO-31, > 100 µM (inactive); in the assay with HL-60 it was > 100 µM (inactive); with T47D it was > 100 µM (inactive); with KM12 it was > 100 µM (inactive). In addition, the GI50 in the assay with RPMI-8226, in the assay on UACC-257, with SF-268, in the assay with UACC-62, with CAKI-1 and in the assay with SF-295 was > 100 µM (inactive) each time. For the same compound, the GI50 in the assay with HT-29, with EKVX, with SNB-75, in the assay with SK-MEL-2, in the assay with HCT-116 and with OVCAR-4 was > 100 µM (inactive) in each case. For the same compound, the GI50 in the assay with SK-MEL-5 was > 100 µM (inactive).

Take `O=[N+]([O-])c1ccc2[nH]nc(OCc3ccccc3Cl)c2c1`: the GI50 in the assay on HCT-15 was 85.5 µM; in the assay on MDA-N it was > 100 µM (inactive); with UO-31, > 10 µM (inactive); with HL-60, > 100 µM (inactive); with T47D, 15 µM (inactive); in the assay with KM12, 91.4 µM (inactive). Also, the GI50 in the assay on RPMI-8226 is > 100 µM (inactive); with UACC-257 it was > 100 µM (inactive); in the assay on SF-268, 68.7 µM (inactive); with UACC-62, 29.2 µM (inactive); with CAKI-1, 50.4 µM (inactive); in the assay on SF-295, 42.6 µM (inactive). Also, the GI50 is > 100 µM (inactive) in the assay on HT-29; 54.2 µM (inactive) in the assay with EKVX; 81.5 µM (inactive) with SNB-75; 27.2 µM (inactive) with SK-MEL-2; 27.4 µM (inactive) with HCT-116; 41.3 µM (inactive) with OVCAR-4. The GI50 with SK-MEL-5 is 26.5 µM (inactive).

Turning to `CCCn1cnc2c(/N=N/O)ncnc21`, the GI50 with HCT-15 is > 100 µM; in the assay on MDA-N, > 100 µM (inactive); in the assay on UO-31, > 100 µM (inactive); with HL-60, > 100 µM (inactive); in the assay with T47D it was > 100 µM (inactive); in the assay with KM12 it was > 100 µM (inactive). Besides, the GI50 in the assay with RPMI-8226, in the assay with SF-268, in the assay with UACC-62, in the assay on CAKI-1, with HT-29 and in the assay with EKVX was > 100 µM (inactive) each time. Also, the GI50 in the assay on SNB-75, in the assay with HCT-116, in the assay on OVCAR-4 and in the assay on SK-MEL-5 was > 100 µM (inactive) in each case.
